We go through 25 compounds from ChEMBL document CHEMBL1909616, “Identification of 4-quinolone derivatives as inhibitors of reactive oxygen species production from human umbilical vein endothelial cells” (Bioorg Med Chem Lett, 2011).

Converted amounts (≈) assume the structure as drawn. Where only a bound is given, the exact number is not on record here.

Data set [1] can be described thus: Intrinsic clearance in human liver microsomes at 0.2 uM. In kind it is ADME, Microsome. A general note: Microsomes from liver hold many membrane-bound enzymes, among them those of drug oxidation.
Data set [2] is described as follows: Intrinsic clearance in mouse liver microsomes at 0.2 uM. In kind it is ADME, Microsome.
Data set [3] can be described thus: Aqueous solubility of the compound at pH 6.8. In kind it is physicochemical. To be noted: aqueous medium.
The nature of data set [4]: Tmax in Sprague-Dawley rat at 3 mg/kg, po. In kind it is ADME, organism-based. More on the design: dose 3 mg/kg, route oral. As to conditions: in vivo.
Data set [5] is described as follows: AUC (0 to 24 hrs) in Sprague-Dawley rat at 0.3 mg/kg, iv. In kind it is ADME, organism-based. Also on record: time < 24 hr, dose 0.3 mg/kg, route intravenous. As to conditions: plasma.
Data set [6] can be described thus: Volume of distribution at steady state in Sprague-Dawley rat at 0.3 mg/kg, iv. In kind it is ADME, organism-based. Also on record: dose 0.3 mg/kg, route intravenous. As to conditions: in vivo, read-out: Vdss.
Data set [7] can be described thus: Total clearance in Sprague-Dawley rat at 0.3 mg/kg, iv. In kind it is ADME, organism-based. More on the design: dose 0.3 mg/kg, route intravenous. As to conditions: in vivo.
Data set [8] in a line: Half life in Sprague-Dawley rat at 0.3 mg/kg, iv. To be noted: in vivo. Also on record: dose 0.3 mg/kg, route intravenous. In kind it is ADME, organism-based.
A short description of data set [9]: AUC (0 to 24 hrs) in Sprague-Dawley rat at 3 mg/kg, po. In kind it is ADME, organism-based. More on the design: time < 24 hr, dose 3 mg/kg, route oral. As to conditions: plasma.
A short description of data set [10]: Oral availability in Sprague-Dawley rat at 3 mg/kg. In kind it is ADME, organism-based. Also on record: dose 3 mg/kg. To be noted: in vivo.
Data set [11] is described as follows: Cmax in Sprague-Dawley rat at 3 mg/kg, po. In kind it is ADME, organism-based. As to conditions: in vivo. More on the design: dose 3 mg/kg, route oral.
The nature of data set [12]: Oral availability in Sprague-Dawley rat at 1 mg/kg. In kind it is ADME, organism-based. More on the design: dose 1 mg/kg. To be noted: in vivo.
A short description of data set [13]: Tmax in Sprague-Dawley rat at 1 mg/kg, po. Also on record: dose 1 mg/kg, route oral. In kind it is ADME, organism-based. As to conditions: in vivo.
The nature of data set [14]: AUC (0 to 24 hrs) in Sprague-Dawley rat at 1 mg/kg, po. In kind it is ADME, organism-based. More on the design: time < 24 hr, dose 1 mg/kg, route oral. To be noted: plasma.
Data set [15] is described as follows: Cmax in Sprague-Dawley rat at 1 mg/kg, po. In kind it is ADME, organism-based. More on the design: dose 1 mg/kg, route oral. As to conditions: in vivo.

As usually defined, the CLint scaled is the capacity of the preparation to metabolise the compound, expressed as a volume cleared per time. High values mean faster metabolism, low ones greater metabolic stability. Usually solubility stands for how much of the substance goes into solution per volume. Read a high solubility as much dissolved substance. Turning to `CCCCCC/C=C/Cc1[nH]c2ccccc2c(=O)c1C`, the intrinsic clearance (CLint scaled) at 0.2 µM in data set [1] and in data set [2] was > 60 L/h/kg in each case. Moreover, the solubility in data set [3] was < 1 µM.

Consider `CCCCCCCCCc1[nH]c2ccccc2c(=O)c1C`, for which the CLint scaled at 0.2 µM in data set [1] and in data set [2] was > 60 L/h/kg in each case. Further, in data set [3], the solubility is < 1 µM.

On to `COCCOCCCCc1[nH]c2ccccc2c(=O)c1C`, for which the CLint scaled at 0.2 µM was 2.7 L/h/kg in [1] and > 60 L/h/kg in data set [2]. Besides, the solubility in [3] is ≥ 100 µM.

Consider `Cc1c(COCCCCOCC2(C)COC2)[nH]c2ccccc2c1=O`, for which the CLint scaled at 0.2 µM in data set [1] was found to be 3.18 L/h/kg; in data set [2] it was 17.7 L/h/kg. Also, the solubility in data set [3] is ≥ 100 µM.

For `Cc1c(COCCCCO)nc2ccccc2c1O`, in data set [3], the solubility was ≥ 100 µM.

On to `CCCCOc1cccc(OCc2[nH]c3ccccc3c(=O)c2C)c1`, for which the CLint scaled at 0.2 µM in data set [1] and in [2] was > 60 L/h/kg throughout. In addition, the solubility in [3] is < 1 µM.

Take `Cc1c(COc2cccc(OCCCC(F)(F)F)c2)nc2ccccc2c1O`: the CLint scaled at 0.2 µM was 15.4 L/h/kg in data set [1] and > 60 L/h/kg in data set [2]. In addition, the solubility in data set [3] is < 1 µM.

As for `COC(C)(C)CCOc1cccc(OCc2[nH]c3ccccc3c(=O)c2C)c1`, the CLint scaled at 0.2 µM in [1] and in data set [2] was > 60 L/h/kg each time. The same compound registered a solubility in [3] of 2 µM (≈ 0.763 µg/mL).

For orientation: Tmax means the time from dosing to the highest level. A word on the AUC(0-t): it is exposure summed from dosing to a finite time, without extrapolation to infinity. The low end stands for less exposure, the high end for more exposure. What is called clearance is the rate of elimination divided by the concentration. The term half-life denotes the time in which the quantity being followed falls by half. A lower half-life goes with fast loss. By bioavailability is commonly meant the share of a dose that reaches the circulation, judged against a reference dose that is usually intravenous. What is called Cmax is the highest concentration seen after dosing. For the compound `Cc1c(COc2cccc(OCC3CCOCC3)c2)[nH]c2ccccc2c1=O`, the Tmax in data set [4] was found to be 0.22 h. In addition, the AUC(0-t) at 24 h was 0.196 µg·h/mL in data set [5] and 0.526 µg·h/mL in data set [9]. Moreover, the CLint scaled at 0.2 µM amounted to 12.8 L/h/kg in data set [1] and 25.2 L/h/kg in data set [2]. Further, in data set [6], the Vd was 2.3 L/kg. Moreover, the clearance in data set [7] amounted to 1.56 L/h/kg. The half-life in data set [8] is 1.8 h. Moreover, the concentration in solution in data set [3] (solubility) came to 5 µM (≈ 1.9 µg/mL). This compound gave a bioavailability in data set [10] of 27%. The same compound had a Cmax in data set [11] of 0.196 µg/mL.

For `O=c1cc(COc2cccc(OCC3CCOCC3)c2)[nH]c2ccccc12`, the results for the CLint scaled at 0.2 µM in [1] and in data set [2] were 4.68 L/h/kg and 11.8 L/h/kg, respectively. In data set [3], the solubility was 4 µM (≈ 1.46 µg/mL).

For `O=c1c(Cl)c(COc2cccc(OCC3CCOCC3)c2)[nH]c2ccccc12`, the figures for the CLint scaled at 0.2 µM in [1] and in data set [2] were 27.6 L/h/kg and > 60 L/h/kg, respectively. The amount in solution in data set [3] (solubility) came to 2 µM (≈ 0.8 µg/mL).

`CC(C)c1c(COc2cccc(OCC3CCOCC3)c2)[nH]c2ccccc2c1=O` registered a solubility in data set [3] of 3 µM (≈ 1.22 µg/mL).

For `Cc1ccc2[nH]c(COc3cccc(OCC4CCOCC4)c3)c(C)c(=O)c2c1`, the solubility in data set [3] is < 1 µM.

`COc1ccc2[nH]c(COc3cccc(OCC4CCOCC4)c3)c(C)c(=O)c2c1`: in data set [3], the solubility is < 1 µM.

`Cc1c(COc2cccc(OCC3CCOCC3)c2)[nH]c2ccc(F)cc2c1=O`: the CLint scaled at 0.2 µM in data set [1] was 28.4 L/h/kg; in [2] it was > 60 L/h/kg. The compound further registered a solubility in [3] of 2 µM (≈ 0.795 µg/mL).

Consider `Cc1c(COc2cccc(OCC3CCOCC3)c2)[nH]c2ccc(Cl)cc2c1=O`, for which the CLint scaled at 0.2 µM in data set [1] and in data set [2] was > 60 L/h/kg in each case. The solubility in data set [3] was < 1 µM.

With `Cc1c(COc2cccc(OCC3CCOCC3)c2)[nH]c2ccc(Br)cc2c1=O`, in data set [3], the solubility was < 1 µM.

Take `Cc1c(COc2cccc(OCC3CCOCC3)c2)[nH]c2ccc(C(=O)O)cc2c1=O`: the results for the CLint scaled at 0.2 µM in data set [1] and in data set [2] were < 1.2 L/h/kg and < 3 L/h/kg, respectively. Further, the solubility in data set [3] is ≥ 100 µM.

For the compound `Cc1c(COc2cccc(OCC3CCOCC3)c2)[nH]c2ccc(-c3cccnc3)cc2c1=O`, the CLint scaled at 0.2 µM in data set [1] was 45.4 L/h/kg; in data set [2] it was > 60 L/h/kg. Also, the solubility in [3] is < 1 µM.

As to `Cc1c(COc2ccnc(OCC3CCOCC3)c2)[nH]c2ccccc2c1=O`, the CLint scaled at 0.2 µM in data set [1] is 5.7 L/h/kg; in data set [2], 12.2 L/h/kg. Further, in [3], the solubility amounted to 22 µM (≈ 8.37 µg/mL).

`Cc1c(COc2cc(OCC3CCOCC3)ccn2)[nH]c2ccccc2c1=O`: the CLint scaled at 0.2 µM was found to be 6.78 L/h/kg in [1] and 18.7 L/h/kg in data set [2]. In addition, the concentration in solution in data set [3] (solubility) was 36 µM (≈ 13.7 µg/mL).

As for `Cc1c(COc2cc(OCCC(C)(C)O)ccn2)[nH]c2ccccc2c1=O`, the AUC(0-t) at 24 h in data set [5] was 0.897 µg·h/mL; in data set [14] it was 2.24 µg·h/mL. The results for the CLint scaled at 0.2 µM in data set [1] and in data set [2] were 2.28 L/h/kg and 6.72 L/h/kg, respectively. Moreover, the Vd in [6] amounted to 1.4 L/kg. Further, the clearance in data set [7] stood at 0.36 L/h/kg. For the same compound, the bioavailability in data set [12] turned out to be 78%. Further, the half-life in [8] is 4.1 h. The compound further displayed a solubility in [3] of 85 µM (≈ 31.3 µg/mL). Moreover, in data set [13], the Tmax came to 4 h. For the same compound, the Cmax in [15] was 0.202 µg/mL.

Consider `Cc1c(COc2cncc(OCC3CCOCC3)c2)[nH]c2ccccc2c1=O`, for which the intrinsic clearance (CLint scaled) at 0.2 µM in data set [1] is 7.98 L/h/kg; in data set [2], 14.3 L/h/kg. For the same compound, in [3], the solubility was ≥ 100 µM.

For `Cc1c(COc2cncc(OCCC(C)(C)O)c2)[nH]c2ccccc2c1=O`, the CLint scaled at 0.2 µM in data set [1] stood at 3.96 L/h/kg; in data set [2], 13.5 L/h/kg. Further, the solubility in data set [3] was ≥ 100 µM.

In the case of `Cc1c(COc2cccc(OCC3CCOCC3)n2)[nH]c2ccccc2c1=O`, the CLint scaled at 0.2 µM was 46.2 L/h/kg in [1] and 59 L/h/kg in data set [2]. Moreover, the concentration in solution in data set [3] (solubility) came to 3 µM (≈ 1.14 µg/mL).
